Values quoted from earlier work in US7276641B2, “External plaster containing 4-biphenylacetic acid” (Teikoku Seiyaku Co., Ltd., priority 2000, dated 2007).
Like-named read-outs stand apart in the source and are kept apart here.

solubility (aqueous plaster with diisopropanolamine as solubilizer): not more than 11% | solubility (crotamiton as solubilizer): at most 7% | solubility (in acetone, ethanol, glacial acetic acid, and ether): less soluble | solubility (in dimethylacetamide): readily soluble | solubility (in polyols, glycols, and esters): hardly soluble | solubility (in water): hardly soluble
Structure (SMILES): O=C(O)Cc1ccc(-c2ccccc2)cc1 [BPAA, 4-biphenylyl acetic acid]
